According to patent publication US6734171B1, “Methods for encapsulating nucleic acids in lipid bilayers” (Inex Pharmaceuticals Corp., priority 1997, dated 2004):

Legend:
[1] = system: Unseparated spleen cells; assay: Cell proliferation assay (3H-thymidine) of spleen cells stimulated in vitro; format: cell-based, Balb/c mice; settings: spleen cells of Diluent treated mice; label = in vitro stimulation
Experimental: Mice, 12 per group, were injected intravenously (i.v.) with TCS formulations as described below. In this study four injections were given at intervals of seven days over a period of five weeks (Table 4). Group A was injected with INEX324 expressing LacZ reporter gene on day 0, 7 and 14 (150 μl per mouse of INEX324-LacZ, 75 μg DNA). Two weeks after the last LacZ injection, mice were injected with INEX324-Luc (150 μl per injection, 80 μg DNA). To evaluate the immunogenicity of INEX324 lipid, Group B received three injections of INEX324 empty vesicles (150 μl per mouse) and one injection of INEX324-Luc two weeks later. Group C served as a base-line control, mice were given 150 μl of diluent at each time point. Mice from Group D received three diluent injections, followed by a single injection of INEX324-Luc, and served as a positive control for luciferase expression. Three mice from each group were sacrificed at 18 hours after each injection, or 24 hours prior to the following injection. Blood was collected and the serum samples were analyzed for the presence of antibodies specific for β-galactosidase using an ELISA assay. […] Splenocytes were monitored for expression, of differentiation (CD4, CD8, CD22, CD11b) and activation (CD86, MHC-II, Ly-6A/E, CD54 and CD25) markers. […]
Unseparated spleen cells were tested in vitro for their ability to proliferate upon re-stimulation with the empty INEX324 vesicles, INEX324-LacZ formulation, LacZ, transgene product (r-β-galactosidase), or with polyclonal activators for T (Concanavalin A, Con A) and […] (Lipopolysaccharide, LPS). […] An isolated cell suspension was separated from debris by removing the supernatant and the cell number was quantified using a Coulter counter (Coulter Instruments, Miami, Fla.). […] The levels of incorporated radioactivity were measured in a scintillation counter. ^3H-thymidine incorporation is expressed total ^3H-incorporation (DPMs), or as a mean percentage (±SD) of media control and plotted versus lipid concentration values.

[2] = system: Splenocytes; assay: Cytokine release (IL-2, IL-4 ELISA) of splenocytes stimulated in vitro; format: cell-based, Balb/c mice; settings: spleen cells of Diluent treated mice; label = in vitro stimulation
Experimental: Splenocytes (1×10^6 cells/ml) were either nonstimulated or cultured in the presence of various concentrations of either empty INEX324 vesicles, or INEX324-LacZ formulation at different times after culture initiation (24 h and 48 h). The levels of cytokine in the cell culture supernatant (Interleukin-2 and Interleukin-4) were determined by an ELISA assasy (below).
Cytokine-specific ELISA assays were performed using the protocol and specific anti-interleukin antibodies provided by reagent mini-kit (Endogen, Woburn MA). Briefly, Immuno-module (F8-maxisorb) 96-well plates were coated overnight with anti-IL-2, or anti-IL-4 antibody. Plates were washed with PBS-Tween 20 (0.05%) and blocked with PBS-Tween 20-BSA (2%) for 1 hour at room temperature. Supernatant samples and standards (diluted in blocking buffer) were added and allowed to incubate overnight. Plates were washed and biotinylated anti-IL-2 or anti-IL-4 antibody was added. After 2 hours incubation, plates were washed and HRP-Extravidin, followed by TMB, was added to each well. Plates were read on a plate reader at OD450nm. The amount of released cytokine was determined by comparing the O.D. of test supernatants to a standard curve of serially diluted cytokine standards.

Substance	3H-incorporation [1] [DPMs]	Cytokine release IL-2 [2] [OD450]	Cytokine release IL-4 [2] [OD450]
Concanavalin A [ConA]	215542	0.615	0.138
Lipopolysaccharide [LPS]	35676		
r-β-gal: transgene product (r-β-galactosidase)	18336	0.059	0.103
